Reference: patent US5837256A, “Method for treatment of Lupus nephritis” (priority 1996, dated 1998)
Each block holds one compound with its values, some of them ahead of it.

Key:
[1] = test system: MRL/lpr mouse model of lupus; assay: Glomerular filtration rate (14C-inulin clearance) in MRL/lpr mice; format: in vivo
Description: (§1) The MRL/lpr mouse model of lupus was chosen to study the effects of SDG on experimental nephritis since it represents the human disease in terms of immune and inflammatory reactions, and age-related renal function deterioration leading to progressive glomerular scarring.
(§2) Mice were obtained at 5 weeks of age from Jackson Laboratories, Me., U.S.A., and acclimatized for one week. From 6 weeks of age onwards, all groups were gavaged with 200 μl/day of water. The appropriate amount of SDG was dissolved in the water to administer either the low-dose (600 μg/day) or the high-dose (1200 μg/day) of SDG.
This example illustrates the effect of SDG on the glomerular filtration rate (GFR) assessed by ^14 C-inulin clearance.

[2] = cited from earlier work
[3] = Gut absorption/conversion of SDG after oral intake; format: in vivo; conditions: human or animal
Description: Enterodiol and enterolactone are trivially referred to as lignans and contain a structural backbone of dibenzylbutane. The most abundant lignan detected in flax is secoisolariciresinol diglucoside (SDG).
The secoisolariciresinol (Seco) may be used per se or in the form of secoisolariciresinol diglucoside (SDG).

[4] = Body weight (and food/water intake) of MRL/lpr lupus mice; format: in vivo, MRL/lpr mouse
Description: The MRL/lpr mouse model of lupus was chosen to study the effects of SDG on experimental nephritis since it represents the human disease in terms of immune and inflammatory reactions, and age-related renal function deterioration leading to progressive glomerular scarring. Mice were obtained at 5 weeks of age from Jackson Laboratories, Me., U.S.A., and acclimatized for one week. From 6 weeks of age onwards, all groups were gavaged with 200 μl/day of water. The appropriate amount of SDG was dissolved in the water to administer either the low-dose (600 μg/day) or the high-dose (1200 μg/day) of SDG. This example illustrates the effect of SDG on the body weight of MRL/lpr lupus mice in compared to the control group. The daily dosage was administered over a 17-week period (6 to 22 weeks of age).

[5] = relative to Seco; cited from earlier work
[6] = test system: MRL/lpr mouse model of lupus; assay: Cervical lymph node weight in MRL/lpr mice (lymphadenopathy); format: in vivo; conditions: for cervical lymph node weights: n = 10
Description: as §1, §2
We therefore examined the effects of low and high dosages of SDG on a deep cervical lymph node in these animals.
The data was non-normally distributed therefore, a non parametric (Kruskal-Wallis) statistical test was used.

[7] = test system: MRL/lpr mouse model of lupus; assay: Onset and prevalence of proteinuria (Albustix) in MRL/lpr lupus mice; format: in vivo
Description: as §1, §2
Gavaging was commenced at the age of 6 weeks in all groups.

[8] = test system: MRL/lpr mouse model of lupus; assay: Spleen weight index in MRL/lpr mice (splenomegaly); format: in vivo; conditions: for Spleen Weight/Body Weight Ratio (×100): n = 10
Description: as §1, §2
We therefore examined the effects of low and high dosages of SDG on spleen weight. The spleen weight index was obtained as a ratio of spleen to body weight (×100).
Data analyzed by ANOVA followed by Bonferroni t-tests

[9] = test system: LDL cholesterol, cell mediated immunity, PAF production by PMN leucocytes, platelet aggregation; conditions: cited from earlier work
[10] = Lignan content of urine of mice gavaged with SDG; conditions: after oral SDG 0.6, 1.2 and 4.8 mg/mouse (FIG. 1)
Description: The mice were dosed with the SDG in amounts of 0.6, 1.2 and 4.8 mg/mouse. Urine samples from the mice were then analysed for lignans.

[11] = High-Lignan gp (1200 μg/day), age wk9
[12] = High-Lignan gp (1200 μg/day), age wk11
[13] = High-Lignan gp (1200 μg/day), age wk13
[14] = High-Lignan gp (1200 μg/day), age wk15
[15] = High-Lignan gp (1200 μg/day), age wk17
[16] = High-Lignan gp (1200 μg/day), age wk19
[17] = High-Lignan gp (1200 μg/day), age wk21
[18] = Low-Lignan gp (600 μg/day), age wk9
[19] = Low-Lignan gp (600 μg/day), age wk11
[20] = Low-Lignan gp (600 μg/day), age wk13
[21] = Low-Lignan gp (600 μg/day), age wk15
[22] = Low-Lignan gp (600 μg/day), age wk17
[23] = Low-Lignan gp (600 μg/day), age wk19
[24] = Low-Lignan gp (600 μg/day), age wk21

Structure (SMILES): COc1cc(C[C@@H](CO[C@@H]2O[C@H](CO)[C@@H](O)[C@H](O)[C@H]2O)[C@H](CO[C@@H]2O[C@H](CO)[C@@H](O)[C@H](O)[C@H]2O)Cc2ccc(O)c(OC)c2)ccc1O [SDG, secoisolariciresinol diglucoside]
dose dependence of benefit on GFR ([1]; 600 and 1200 μg/day): dose-dependant benefit | GFR ([1]; High-Lignan (1200 μg/day), 14 wks of age, n = 9): 8.09 ± 2.74 ml/min/kg body weight | GFR ([1]; High-Lignan (1200 μg/day), 22 wks of age, n = 10): 5.33 ± 3.16 ml/min/kg body weight | GFR ([1]; Low-Lignan (600 μg/day), 14 wks of age, n = 10): 7.41 ± 3.88 ml/min/kg body weight | GFR ([1]; Low-Lignan (600 μg/day), 22 wks of age, n = 10): 4.81 ± 1.49 ml/min/kg body weight | decline of renal function (GFR) ([1]; compared to vehicle treated control group): attenuates the decline of renal function (GFR) | metabolism on ingestion ([2]; enzymatic hydrolysis and intestinal microflora): enzymatically hydrolyzed to the aglycone and transformed by intestinal microflora into enterodiol and enterolactone | absorption across the gut wall ([2]; generally accepted for diglycosides): not absorbed across the gut wall | conversion in the gut after oral administration [3]: converted to secoisolariciresinol in the gut | food intake ([4]; 600 and 1200 μg/day): no significant difference | water intake ([4]; 600 and 1200 μg/day): no significant difference | body weight gain in the different treatment groups ([4]; 600 and 1200 μg/day, 6 to 22 weeks of age): no significant difference | Body Weight ([4]; High-Lignan gp (1200 μg/day), age w22): 38 ± 3 g | Body Weight ([4]; High-Lignan gp (1200 μg/day), age wk5 (before gavage, which began at 6 weeks)): 25 ± 2 g | Body Weight ([4]; High-Lignan gp (1200 μg/day), age wk7): 26 ± 2 g | Body Weight [4, 11]: 27 ± 2 g | Body Weight [4, 12]: 29 ± 2 g | Body Weight [4, 13]: 31 ± 3 g | Body Weight [4, 14]: 34 ± 3 g | Body Weight [4, 15]: 37 ± 3 g | Body Weight [4, 16]: 38 ± 3 g | Body Weight [4, 17]: 39 ± 3 g | Body Weight ([4]; Low-Lignan gp (600 μg/day), age w22): 38 ± 3 g | Body Weight ([4]; Low-Lignan gp (600 μg/day), age wk5 (before gavage, which began at 6 weeks)): 25 ± 2 g | Body Weight ([4]; Low-Lignan gp (600 μg/day), age wk7): 26 ± 3 g | Body Weight [4, 18]: 27 ± 3 g | Body Weight [4, 19]: 29 ± 3 g | Body Weight [4, 20]: 31 ± 3 g | Body Weight [4, 21]: 33 ± 3 g | Body Weight [4, 22]: 36 ± 3 g | Body Weight [4, 23]: 37 ± 3 g | Body Weight [4, 24]: 38 ± 4 g | water solubility compared with Seco [5]: greater water solubility | reducing cell proliferation, a marker of immune and inflammatory activity ([6]; Examples 5 and 6 taken together): moderate benefits | cervical lymph node weights ([6]; High-Lignan (1200 μg/day), 14 wks of age): 71 ± 65 mg | cervical lymph node weights ([6]; High-Lignan (1200 μg/day), 22 wks of age, a,b: significantly greater than baseline and than 14 week values): 211 ± 58 mg | cervical lymph node weights ([6]; Low-Lignan (600 μg/day), 14 wks of age, a: significantly greater than baseline): 97 ± 69 mg | cervical lymph node weights ([6]; Low-Lignan (600 μg/day), 22 wks of age, a: significantly greater than baseline): 251 ± 91 mg | increase in lymph node weight ([6]; high dose (1200 μg/day), at/up to 14 weeks of age, Kruskal-Wallis): attenuated the increase in lymph node weight | % of mice with ≥ 2 proteinuria on Albustix [7, 11]: 0% | % of mice with ≥ 2 proteinuria on Albustix ([7]; High-Lignan gp (1200 μg/day), age wk 10): 0% | % of mice with ≥ 2 proteinuria on Albustix [7, 12]: 4% | % of mice with ≥ 2 proteinuria on Albustix ([7]; High-Lignan gp (1200 μg/day), age wk 12): 4% | % of mice with ≥ 2 proteinuria on Albustix [7, 13]: 4% | % of mice with ≥ 2 proteinuria on Albustix ([7]; High-Lignan gp (1200 μg/day), age wk 14): 4% | % of mice with ≥ 2 proteinuria on Albustix [7, 14]: 7% | % of mice with ≥ 2 proteinuria on Albustix ([7]; High-Lignan gp (1200 μg/day), age wk 16): 7% | % of mice with ≥ 2 proteinuria on Albustix [7, 15]: 7% | % of mice with ≥ 2 proteinuria on Albustix ([7]; High-Lignan gp (1200 μg/day), age wk 18): 21% | % of mice with ≥ 2 proteinuria on Albustix [7, 16]: 36% | % of mice with ≥ 2 proteinuria on Albustix ([7]; High-Lignan gp (1200 μg/day), age wk 20): 50% | % of mice with ≥ 2 proteinuria on Albustix [7, 17]: 43% | % of mice with ≥ 2 proteinuria on Albustix ([7]; High-Lignan gp (1200 μg/day), age wks 6-8): 0% | % of mice with ≥ 2 proteinuria on Albustix [7, 18]: 0% | % of mice with ≥ 2 proteinuria on Albustix ([7]; Low-Lignan gp (600 μg/day), age wk 10): 0% | % of mice with ≥ 2 proteinuria on Albustix [7, 19]: 0% | % of mice with ≥ 2 proteinuria on Albustix ([7]; Low-Lignan gp (600 μg/day), age wk 12): 0% | % of mice with ≥ 2 proteinuria on Albustix [7, 20]: 0% | % of mice with ≥ 2 proteinuria on Albustix ([7]; Low-Lignan gp (600 μg/day), age wk 14): 17% | % of mice with ≥ 2 proteinuria on Albustix [7, 21]: 21% | % of mice with ≥ 2 proteinuria on Albustix ([7]; Low-Lignan gp (600 μg/day), age wk 16): 21% | % of mice with ≥ 2 proteinuria on Albustix [7, 22]: 23% | % of mice with ≥ 2 proteinuria on Albustix ([7]; Low-Lignan gp (600 μg/day), age wk 18): 38% | % of mice with ≥ 2 proteinuria on Albustix [7, 23]: 38% | % of mice with ≥ 2 proteinuria on Albustix ([7]; Low-Lignan gp (600 μg/day), age wk 20): 38% | % of mice with ≥ 2 proteinuria on Albustix [7, 24]: 27% | % of mice with ≥ 2 proteinuria on Albustix ([7]; Low-Lignan gp (600 μg/day), age wks 6-8): 0% | onset of proteinuria ([7]; low and high dosages): delay the onset of proteinuria | prevalence of proteinuria ([7]; low and high dosages): reduce the prevalence of proteinuria | spleen weight index in the different groups ([8]; 600 and 1200 μg/day, ANOVA, Bonferroni t-tests): no significant difference | Spleen Weight/Body Weight Ratio (×100) ([8]; High-Lignan (1200 μg/day), 14 wks of age, marked a): 0.77 ± 0.26 | Spleen Weight/Body Weight Ratio (×100) ([8]; High-Lignan (1200 μg/day), 22 wks of age, marked a,b): 1.74 ± 0.35 | Spleen Weight/Body Weight Ratio (×100) ([8]; Low-Lignan (600 μg/day), 14 wks of age, marked a): 0.93 ± 0.33 | Spleen Weight/Body Weight Ratio (×100) ([8]; Low-Lignan (600 μg/day), 22 wks of age, marked a,b): 1.89 ± 0.39 | spleen weight gain compared to other groups ([8]; high dose SDG group, 14 weeks age-interval): moderately smaller spleen weight gain

Structure (SMILES): CC/C=C\C/C=C\C/C=C\CCCCCCCC(=O)O [alpha-linolenic acid]
LDL cholesterol [9]: lower | PAF production by PMN leucocytes [9]: lower | cell mediated immunity [9]: lower | platelet aggregation [9]: lower

secoisolariciresinol concentrations in the urine [10]: SDG dose dependent
Structure (SMILES): COc1cc(CC(CO)C(CO)Cc2ccc(O)c(OC)c2)ccc1O (stereo not drawn) [secoisolariciresinol]

mammalian lignans in the urine [10]: only traces
Structure (SMILES): OC[C@H](Cc1cccc(O)c1)[C@H](CO)Cc1cccc(O)c1 [enterodiol]
